Data: patent publication US9738634B2, “Heterocyclic amide compound and herbicide” (SYNGENTA PARTICIPATIONS AG, priority 2013, dated 2017)

Key:
Assay type in all cases: in vivo
Conditions in all cases: treatment dosage 320 g/ha
[1] = tested on: rapeseed; experiment: Test Example 3: soil treatment, effect on crop; g: rapeseed
Method in brief: (§1)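 Crop and weed responses were judged three weeks after a uniform surface spray of the water-diluted emulsion at the given g/ha rate. Seeds sat beneath about 1.5 cm of sterilized diluvial soil, and boxes stood in a greenhouse at 25 to 30° C.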

[2] = tested on: birds-eye speedwell; experiment: Test Example 3: weedkilling efficacy through soil treatment; p: birds-eye speedwell
Method in brief: as §1

[3] = tested on: beet; experiment: Test Example 4: foliar treatment, effect on crop; f: beet
Method in brief: (§2)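 Seeds are spot-sown into sterilized diluvial soil and covered with about 1.5 cm of soil. After 14 days' greenhouse growth at 25 to 30° C, plants are sprayed on stems and leaves with diluted emulsion at the stated g/ha rate, then scored at 3 weeks.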

[4] = tested on: redroot pigweed; experiment: Test Example 4: weedkilling efficacy by foliar treatment; L: redroot pigweed
Method in brief: as §2

[5] = tested on: oval-leafed pondweed; experiment: Test Example 2: weedkilling efficacy, growth period weed treatment in the submerged state; C: oval-leafed pondweed
Method in brief: (§3)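 First, alluvial soil in pots is flooded to 4 cm and mixed seed is sown. Next, plants grow in a greenhouse at 25 to 30° C until the 1-2 leaf stage. Then diluted emulsion is applied onto the water surface at the given g/ha rate, and injury is assessed after 3 weeks.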

[6] = tested on: black-grass; experiment: Test Example 4: weedkilling efficacy by foliar treatment; H: black-grass
Method in brief: as §2

[7] = tested on: directly sown rice; experiment: Test Example 3: soil treatment, effect on crop; b: directly sown rice
Method in brief: as §1

[8] = tested on: chickweed; experiment: Test Example 3: weedkilling efficacy through soil treatment; N: chickweed
Method in brief: as §1

[9] = tested on: catchweed; experiment: Test Example 3: weedkilling efficacy through soil treatment; O: catchweed
Method in brief: as §1

[10] = tested on: wild oat; experiment: Test Example 4: weedkilling efficacy by foliar treatment; G: wild oat
Method in brief: as §2

[11] = tested on: catchweed; experiment: Test Example 4: weedkilling efficacy by foliar treatment; O: catchweed
Method in brief: as §2

[12] = tested on: corn; experiment: Test Example 3: soil treatment, effect on crop; c: corn
Method in brief: as §1

[13] = tested on: birds-eye speedwell; experiment: Test Example 4: weedkilling efficacy by foliar treatment; p: birds-eye speedwell
Method in brief: as §2

[14] = tested on: common wind-grass; experiment: Test Example 3: weedkilling efficacy through soil treatment; J: common wind-grass
Method in brief: as §1

[15] = tested on: Indian mallow; experiment: Test Example 3: weedkilling efficacy through soil treatment; K: Indian mallow
Method in brief: as §1

[16] = tested on: chickweed; experiment: Test Example 4: weedkilling efficacy by foliar treatment; N: chickweed
Method in brief: as §2

[17] = tested on: fig-leafed goosefoot; experiment: Test Example 4: weedkilling efficacy by foliar treatment; M: fig-leafed goosefoot
Method in brief: as §2

[18] = tested on: soybean; experiment: Test Example 4: foliar treatment, effect on crop; d: soybean
Method in brief: as §2

[19] = tested on: corn; experiment: Test Example 4: foliar treatment, effect on crop; c: corn
Method in brief: as §2

[20] = tested on: wheat; experiment: Test Example 3: soil treatment, effect on crop; e: wheat
Method in brief: as §1

[21] = tested on: barnyard grass; experiment: Test Example 4: weedkilling efficacy by foliar treatment; F: barnyard grass
Method in brief: as §2

[22] = tested on: transplanted rice; experiment: Test Example 1: preemergent weed treatment in the submerged state, effect on crop; a: transplanted rice
Method in brief: (§4)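 Alluvial soil in Wagner pots flooded to 4 cm; barnyard grass, bulrush and oval-leafed pondweed seeds sown, then 2.5-leaf rice seedlings transplanted. Same day, emulsified compound diluted in water to set g/ha dosages and applied to water surface; greenhouse 25–30 °C, effect scored by criteria after 3 weeks.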

[23] = tested on: barnyard grass; experiment: Test Example 1: weedkilling efficacy, preemergent weed treatment in the submerged state; A: barnyard grass
Method in brief: as §4

[24] = tested on: wild oat; experiment: Test Example 3: weedkilling efficacy through soil treatment; G: wild oat
Method in brief: as §1

[25] = tested on: common wind-grass; experiment: Test Example 4: weedkilling efficacy by foliar treatment; J: common wind-grass
Method in brief: as §2

[26] = tested on: bulrush; experiment: Test Example 1: weedkilling efficacy, preemergent weed treatment in the submerged state; B: bulrush
Method in brief: as §4

[27] = tested on: soybean; experiment: Test Example 3: soil treatment, effect on crop; d: soybean
Method in brief: as §1

[28] = tested on: Indian mallow; experiment: Test Example 4: weedkilling efficacy by foliar treatment; K: Indian mallow
Method in brief: as §2

[29] = tested on: oval-leafed pondweed; experiment: Test Example 1: weedkilling efficacy, preemergent weed treatment in the submerged state; C: oval-leafed pondweed
Method in brief: as §4

[30] = tested on: green foxtail; experiment: Test Example 4: weedkilling efficacy by foliar treatment; E: green foxtail
Method in brief: as §2

[31] = tested on: crabgrass; experiment: Test Example 4: weedkilling efficacy by foliar treatment; D: crabgrass
Method in brief: as §2

[32] = tested on: barnyard grass; experiment: Test Example 3: weedkilling efficacy through soil treatment; F: barnyard grass
Method in brief: as §1

[33] = tested on: beet; experiment: Test Example 3: soil treatment, effect on crop; f: beet
Method in brief: as §1

[34] = tested on: black-grass; experiment: Test Example 3: weedkilling efficacy through soil treatment; H: black-grass
Method in brief: as §1

[35] = tested on: green foxtail; experiment: Test Example 3: weedkilling efficacy through soil treatment; E: green foxtail
Method in brief: as §1

[36] = tested on: bulrush; experiment: Test Example 2: weedkilling efficacy, growth period weed treatment in the submerged state; B: bulrush
Method in brief: as §3

[37] = tested on: barnyard grass; experiment: Test Example 2: weedkilling efficacy, growth period weed treatment in the submerged state; A: barnyard grass
Method in brief: as §3

[38] = tested on: crabgrass; experiment: Test Example 3: weedkilling efficacy through soil treatment; D: crabgrass
Method in brief: as §1

[39] = tested on: directly sown rice; experiment: Test Example 4: foliar treatment, effect on crop; b: directly sown rice
Method in brief: as §2

[40] = tested on: fig-leafed goosefoot; experiment: Test Example 3: weedkilling efficacy through soil treatment; M: fig-leafed goosefoot
Method in brief: as §1

[41] = tested on: Italian ryegrass; experiment: Test Example 4: weedkilling efficacy by foliar treatment; I: Italian ryegrass
Method in brief: as §2

[42] = tested on: redroot pigweed; experiment: Test Example 3: weedkilling efficacy through soil treatment; L: redroot pigweed
Method in brief: as §1

[43] = tested on: Italian ryegrass; experiment: Test Example 3: weedkilling efficacy through soil treatment; I: Italian ryegrass
Method in brief: as §1

[44] = tested on: rapeseed; experiment: Test Example 4: foliar treatment, effect on crop; g: rapeseed
Method in brief: as §2

[45] = tested on: wheat; experiment: Test Example 4: foliar treatment, effect on crop; e: wheat
Method in brief: as §2

## COc1cc(C(F)(F)F)cc(NC(=O)C(C)(C)N2COC(C)=C(c3cccnc3F)C2=O)n1 [B-2-14]
[1]
  g (rapeseed) effect on crop grade: 1 (weed kill ratio 5% or more, less than 20%)
[2]
  P (birds-eye speedwell) weedkilling efficacy grade: 4 (weed kill ratio 70% or more, less than 90%)
[3]
  f (beet) effect on crop grade: 3 (weed kill ratio 40% or more, less than 70%)
[4]
  L (redroot pigweed) weedkilling efficacy grade: 4 (weed kill ratio 70% or more, less than 90%)
[5]
  C (oval-leafed pondweed) weedkilling efficacy grade: 4 (weed kill ratio 70% or more, less than 90%)
[6]
  H (black-grass) weedkilling efficacy grade: 5 (weed kill ratio 90% or more, (practically complete withering))
[7]
  b (directly sown rice) effect on crop grade: 4 (weed kill ratio 70% or more, less than 90%)
[8]
  N (chickweed) weedkilling efficacy grade: 3 (weed kill ratio 40% or more, less than 70%)
[9]
  O (catchweed) weedkilling efficacy grade: 4 (weed kill ratio 70% or more, less than 90%)
[10]
  G (wild oat) weedkilling efficacy grade: 4 (weed kill ratio 70% or more, less than 90%)
[11]
  O (catchweed) weedkilling efficacy grade: 4 (weed kill ratio 70% or more, less than 90%)
[12]
  c (corn) effect on crop grade: 0 (weed kill ratio 5% or less (practically no effect))
[13]
  P (birds-eye speedwell) weedkilling efficacy grade: 4 (weed kill ratio 70% or more, less than 90%)
[14]
  J (common wind-grass) weedkilling efficacy grade: 5 (weed kill ratio 90% or more, (practically complete withering))
[15]
  K (Indian mallow) weedkilling efficacy grade: 0 (weed kill ratio 5% or less (practically no effect))
[16]
  N (chickweed) weedkilling efficacy grade: 4 (weed kill ratio 70% or more, less than 90%)
[17]
  M (fig-leafed goosefoot) weedkilling efficacy grade: 4 (weed kill ratio 70% or more, less than 90%)
[18]
  d (soybean) effect on crop grade: 3 (weed kill ratio 40% or more, less than 70%)
[19]
  c (corn) effect on crop grade: 3 (weed kill ratio 40% or more, less than 70%)
[20]
  e (wheat) effect on crop grade: 0 (weed kill ratio 5% or less (practically no effect))
[21]
  F (barnyard grass) weedkilling efficacy grade: 4 (weed kill ratio 70% or more, less than 90%)
[22]
  a (transplanted rice) effect on crop grade: 3 (weed kill ratio 40% or more, less than 70%)
[23]
  A (barnyard grass) weedkilling efficacy grade: 5 (weed kill ratio 90% or more, (practically complete withering))
[24]
  G (wild oat) weedkilling efficacy grade: 5 (weed kill ratio 90% or more, (practically complete withering))
[25]
  J (common wind-grass) weedkilling efficacy grade: 5 (weed kill ratio 90% or more, (practically complete withering))
[26]
  B (bulrush) weedkilling efficacy grade: 5 (weed kill ratio 90% or more, (practically complete withering))
[27]
  d (soybean) effect on crop grade: 0 (weed kill ratio 5% or less (practically no effect))
[28]
  K (Indian mallow) weedkilling efficacy grade: 5 (weed kill ratio 90% or more, (practically complete withering))
[29]
  C (oval-leafed pondweed) weedkilling efficacy grade: 4 (weed kill ratio 70% or more, less than 90%)
[30]
  E (green foxtail) weedkilling efficacy grade: 5 (weed kill ratio 90% or more, (practically complete withering))
[31]
  D (crabgrass) weedkilling efficacy grade: 4 (weed kill ratio 70% or more, less than 90%)
[32]
  F (barnyard grass) weedkilling efficacy grade: 5 (weed kill ratio 90% or more, (practically complete withering))
[33]
  f (beet) effect on crop grade: 3 (weed kill ratio 40% or more, less than 70%)
[34]
  H (black-grass) weedkilling efficacy grade: 5 (weed kill ratio 90% or more, (practically complete withering))
[35]
  E (green foxtail) weedkilling efficacy grade: 5 (weed kill ratio 90% or more, (practically complete withering))
[36]
  B (bulrush) weedkilling efficacy grade: 4 (weed kill ratio 70% or more, less than 90%)
[37]
  A (barnyard grass) weedkilling efficacy grade: 4 (weed kill ratio 70% or more, less than 90%)
[38]
  D (crabgrass) weedkilling efficacy grade: 5 (weed kill ratio 90% or more, (practically complete withering))
[39]
  b (directly sown rice) effect on crop grade: 3 (weed kill ratio 40% or more, less than 70%)
[40]
  M (fig-leafed goosefoot) weedkilling efficacy grade: 3 (weed kill ratio 40% or more, less than 70%)
[41]
  I (Italian ryegrass) weedkilling efficacy grade: 5 (weed kill ratio 90% or more, (practically complete withering))
[42]
  L (redroot pigweed) weedkilling efficacy grade: 3 (weed kill ratio 40% or more, less than 70%)
[43]
  I (Italian ryegrass) weedkilling efficacy grade: 5 (weed kill ratio 90% or more, (practically complete withering))
[44]
  g (rapeseed) effect on crop grade: 4 (weed kill ratio 70% or more, less than 90%)
[45]
  e (wheat) effect on crop grade: 0 (weed kill ratio 5% or less (practically no effect))
